One block for each compound: values may come before it.
What was measured:
[1] = tested on: Sprague-Dawley rat models of osteoarthritis induced by intra-articular introduction of sodium iodoacetate; assay: mechanical allodynia test with von Frey filaments in osteoarthritis induced by sodium iodoacetate; format: in vivo
Procedure: The intra-articular introduction of aerobic glycolysis inhibitor (sodium iodoacetate) results in death of chondrocytes and acute inflammatory reaction in a synovial cavity. In absence of treatment, at day 10 from the pathology induction an onset of chronic pain is observed due to cartilage destruction and development of chronic inflammation in particular cases [J Musculoskel Neuron Interact 2001; 1(4):363-376]. Extent of osteoarthritis development in rats was evaluated by comparison of extremity pain sensitivity threshold after the introduction of sodium iodoacetate versus background measurements taken before the pathology induction. The threshold of the pain sensitivity was evaluated by mechanical allodynia test using von Frey filaments (see Table 8).
For the purposes of the study, rat males weighing 150 to 200 g were selected. All the animals underwent acclimatization for 14 days. The animals were housed in a polycarbonate cages of 3H type manufactured by Charles River laboratories Inc according to COST R 53434-2009. 12-hours lighting regimen was maintained. The animals had access to food and water ad libitum. The pathology was induced by introduction of 50 μl solution containing 2 mg of sodium iodoacetate into a synovial cavity of the animal knee joints. Tactile allodynia induced by a mechanical irritation was evaluated using von Frey filaments weighing 0.06 to 23.96 g. The test was repeated five times for each filament at intervals of 1 to 2 s. The sensitivity threshold was considered as a minimum reaction threshold provoking paw withdrawal in one of five repeats.

[2] = further clinical trials, daily exposure of a therapeutically effective dose; cited from earlier work
Hck = Hck (Homo sapiens, UniProt P08631); assay: human kinase enzymatic activity in vitro; format: biochemical; details: 0.5 μmol/l
[3] = tested on: chondrocytes from knee joint cartilage of young rats; assay: IL-1β-induced hypertrophic changes in chondrocytes (aggrecan expression); format: cell-based, rats (Sprague Dawley)
Procedure: The study was carried out following the method below: chondrocytes were isolated from a knee joint cartilage of young rats (aged 3 weeks, Sprague Dawley line). The isolated chondrocytes in a cultural medium (Dulbecco's modified Igla minimum essential medium/fetal calf serum (DMEM/FCS), 10%, 4-(2-hydroxyethyl)-1-piperazine ethanesulfonic acid (HEPES), 25 mM) was stored frozen at −80° C. The obtained chondrocytes were unfrozen a day before the experiment, inoculated into 12-well plates and cultured as a monolayer during 24 hours. After 24 hours of incubation IL-1β-induced activation of chondrocytes and treatment with the studied compounds was started and continued for 3 days.

Yes = Yes (Homo sapiens, UniProt P07947); assay: human kinase enzymatic activity in vitro; format: biochemical; details: 0.5 μmol/l
Lyn = Lyn (Homo sapiens, UniProt P07948); assay: human kinase enzymatic activity in vitro; format: biochemical; details: 0.5 μmol/l
[4] = target: human recombinant tyrosine c-Src kinase (Homo sapiens, UniProt P12931); assay: human kinase enzymatic activity in vitro (33P-ATP, peptide substrate); format: biochemical
Procedure: (§1) The Compound 1 effect on the human recombinant tyrosine c-Src kinase was measured as follows: a peptide substrate was dissolved in a reaction buffer ad 0.2 mg/ml concentration. A solution of recombinant c-Src kinase was added to 2 nM concentration and the studied compound to the required concentration (within the range of 1 nM to 10 μM) was added. A solution of ^33P-ATP was added to 10 μM concentration (final specific activity of the solution is 0.01 μCi). After 120 minutes of incubation, the reaction mixture was applied on ion-exchange paper, which was rinsed with a plenty of phosphoric acid. A reaction extent was determined based on radioactivity of the reaction products.

Lck = Lck (Homo sapiens, UniProt P06239); assay: human kinase enzymatic activity in vitro; format: biochemical; details: 0.5 μmol/l
Syk kinase = Syk kinase (Homo sapiens, UniProt P43405); assay: human kinase enzymatic activity in vitro; format: biochemical
Blk = Blk (Homo sapiens, UniProt P51451); assay: human kinase enzymatic activity in vitro; format: biochemical; details: 0.5 μmol/l
Frk = Frk (Homo sapiens, UniProt P42685); assay: human kinase enzymatic activity in vitro; format: biochemical; details: 0.5 μmol/l
Fgr = Fgr (Homo sapiens, UniProt P09769); assay: human kinase enzymatic activity in vitro; format: biochemical; details: 0.5 μmol/l
Fyn = Fyn (Homo sapiens, UniProt P06241); assay: human kinase enzymatic activity in vitro; format: biochemical; details: 0.5 μmol/l
Src-kinase family = assay: human kinase enzymatic activity in vitro; format: biochemical; details: 0.5 μmol/l
Procedure: as §1

mature human osteoclasts = assay: osteoclast-mediated resorption of mineralized matrix; format: cell-based
Procedure: The study was carried out following the method below: CD15+ monocytes (osteoclast precursor cells) were cultivated for 3 days in a proliferation medium (Igla α-modified minimum essential medium/fetal calf serum (aMEM/FCS), 10% with 25 ng/ml of macrophage colony-stimulating factor (M-CSF)). During this stage M-CSF promoted proliferation and expression of a receptor activator of nuclear factor KB (RANK, cappa-B, type I membrane protein). The proliferation medium was removed and cells were differentiated in a differentiation medium (aMEM/FCS-10% with 100 ng/ml of RANKL and 25 ng/ml of M-CSF). When mature osteoclasts were detected in the culture (day 4 of the study), the cells were collected and re-inoculated into a 96-well plate coated with a synthetic mineralized matrix. Cultivation continued for 48 hours (at presence of the studied compounds) to evaluate osteoclast resorption. Then number of mature osteoclasts and the resorption degree were evaluated. An effect of 4-methylbenzenesulfonic acid and Compound 1 salt concentration on concentration and resorption degree of mature osteoclasts was evaluated in comparison with control samples ([…] control, 0.3% DMSO solvent) and reference inhibitors, i.e., saracatinib and bosutinib (see FIG. 18).

[5] = pKa of protonated pyridine nitrogen; format: physicochemical; details: protonated nitrogen atom of pyridine
Description: To obtain a form having optimal biological and physical properties, various salt forms of the Compound 1 was synthesized. A primary goal of the salt form optimization was to obtain a Compound 1 salt form having the following properties: crystallinity, composition stability, therapeutic efficacy, safety, ease of production process scalability, using a pharmacologically acceptable counterion (preferably anion), and using low toxicity organic solvents. The salt forms of Compound 1 were obtained with organic solutions of high polarity and low toxicity (Class 3). The counterions were used based on pharmacological acceptance and high acid strength (pKa not exceeding 3.25). The requirement for the high acid strength is conditioned by the fact that a protonated nitrogen atom of pyridine of the Compound 1 is a weak base having pKa 4.

[6] = solubility of the primary base in selected organic solvents; format: physicochemical; details: organic solvent or mixture, thermodynamic from solid
Procedure: At the first stage solubility of the primary base in the selected organic solvents was studied. Maximum volume of a solvent for this study was selected as 10 ml per 100 mg of the base taking into consideration the subsequent process scaling.

[7] = pharmacokinetics in blood plasma after oral administration in Wistar rats; details: Wistar, rat, in vivo, po, 30 mg/kg
Procedure: At the first stage, pharmacokinetics of the Compound 1 free base was studied after oral administration in Wistar rats at dosage of 30 mg/kg.
Pharmacokinetics of several Compound 1 salt forms was studied after oral administration in Wistar rats at a dose of 37 mg/kg (30 mg/kg equivalent to a free base).

[8] = as above; details: rat, in vivo, 21 mg/kg

Chain of human recombinant tyrosine c-Src kinase (P12931 whole entry): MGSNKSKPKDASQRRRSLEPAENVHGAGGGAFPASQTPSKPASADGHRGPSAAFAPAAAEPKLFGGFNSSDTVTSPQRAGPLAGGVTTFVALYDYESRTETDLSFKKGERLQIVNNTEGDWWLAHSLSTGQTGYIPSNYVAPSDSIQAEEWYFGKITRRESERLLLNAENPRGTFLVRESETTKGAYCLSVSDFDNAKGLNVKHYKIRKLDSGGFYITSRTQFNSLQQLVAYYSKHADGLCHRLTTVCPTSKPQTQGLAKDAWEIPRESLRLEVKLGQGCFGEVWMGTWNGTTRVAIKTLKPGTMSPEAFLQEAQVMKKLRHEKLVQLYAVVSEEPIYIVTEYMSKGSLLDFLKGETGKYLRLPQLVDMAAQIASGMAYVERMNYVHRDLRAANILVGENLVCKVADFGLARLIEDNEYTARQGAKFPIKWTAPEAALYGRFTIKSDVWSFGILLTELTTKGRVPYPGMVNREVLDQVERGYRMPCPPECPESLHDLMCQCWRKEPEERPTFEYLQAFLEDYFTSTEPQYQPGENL
Chain of Hck (P08631 whole entry): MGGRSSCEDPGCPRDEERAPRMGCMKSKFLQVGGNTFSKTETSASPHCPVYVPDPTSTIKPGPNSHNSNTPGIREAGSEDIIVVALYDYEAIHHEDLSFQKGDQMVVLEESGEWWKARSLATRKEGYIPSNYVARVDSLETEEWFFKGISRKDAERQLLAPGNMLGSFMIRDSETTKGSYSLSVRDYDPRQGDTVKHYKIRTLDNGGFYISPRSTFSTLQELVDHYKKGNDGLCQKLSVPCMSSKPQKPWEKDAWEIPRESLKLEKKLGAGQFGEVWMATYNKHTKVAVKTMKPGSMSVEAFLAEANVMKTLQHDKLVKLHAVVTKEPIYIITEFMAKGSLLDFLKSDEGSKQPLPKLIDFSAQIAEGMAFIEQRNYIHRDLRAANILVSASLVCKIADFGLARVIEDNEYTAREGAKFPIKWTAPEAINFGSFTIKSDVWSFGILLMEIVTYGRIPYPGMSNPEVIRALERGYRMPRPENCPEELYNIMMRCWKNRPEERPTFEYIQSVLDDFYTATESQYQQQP
Chain of Lck (P06239 whole entry): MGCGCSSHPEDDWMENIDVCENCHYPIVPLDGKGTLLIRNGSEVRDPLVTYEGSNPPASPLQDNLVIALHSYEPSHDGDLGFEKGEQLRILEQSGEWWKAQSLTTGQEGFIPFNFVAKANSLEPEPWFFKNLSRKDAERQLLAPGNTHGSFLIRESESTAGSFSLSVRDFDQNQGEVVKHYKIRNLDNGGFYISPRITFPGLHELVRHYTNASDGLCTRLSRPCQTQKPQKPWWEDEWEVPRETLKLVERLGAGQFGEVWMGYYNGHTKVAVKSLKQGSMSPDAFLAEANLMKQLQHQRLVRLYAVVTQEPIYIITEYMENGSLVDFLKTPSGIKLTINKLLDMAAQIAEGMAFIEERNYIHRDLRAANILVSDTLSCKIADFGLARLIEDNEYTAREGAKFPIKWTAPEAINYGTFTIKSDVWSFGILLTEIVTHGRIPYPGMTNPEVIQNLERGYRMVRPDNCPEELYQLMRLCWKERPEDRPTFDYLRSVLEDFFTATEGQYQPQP
Chain of Fgr (P09769 whole entry): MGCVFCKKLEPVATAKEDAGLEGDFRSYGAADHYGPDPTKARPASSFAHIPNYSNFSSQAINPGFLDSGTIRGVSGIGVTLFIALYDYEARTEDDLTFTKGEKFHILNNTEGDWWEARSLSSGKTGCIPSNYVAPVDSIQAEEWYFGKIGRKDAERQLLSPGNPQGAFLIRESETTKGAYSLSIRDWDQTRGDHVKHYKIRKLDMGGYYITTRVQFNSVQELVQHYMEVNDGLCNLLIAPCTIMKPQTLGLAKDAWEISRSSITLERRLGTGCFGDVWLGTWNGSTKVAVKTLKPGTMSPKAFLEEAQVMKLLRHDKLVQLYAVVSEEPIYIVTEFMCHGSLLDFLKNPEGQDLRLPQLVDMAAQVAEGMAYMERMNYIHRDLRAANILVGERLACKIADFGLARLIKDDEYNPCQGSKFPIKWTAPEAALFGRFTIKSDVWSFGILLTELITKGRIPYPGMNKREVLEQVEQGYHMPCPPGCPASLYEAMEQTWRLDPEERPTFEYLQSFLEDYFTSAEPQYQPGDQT
Chain of Blk (P51451 whole entry): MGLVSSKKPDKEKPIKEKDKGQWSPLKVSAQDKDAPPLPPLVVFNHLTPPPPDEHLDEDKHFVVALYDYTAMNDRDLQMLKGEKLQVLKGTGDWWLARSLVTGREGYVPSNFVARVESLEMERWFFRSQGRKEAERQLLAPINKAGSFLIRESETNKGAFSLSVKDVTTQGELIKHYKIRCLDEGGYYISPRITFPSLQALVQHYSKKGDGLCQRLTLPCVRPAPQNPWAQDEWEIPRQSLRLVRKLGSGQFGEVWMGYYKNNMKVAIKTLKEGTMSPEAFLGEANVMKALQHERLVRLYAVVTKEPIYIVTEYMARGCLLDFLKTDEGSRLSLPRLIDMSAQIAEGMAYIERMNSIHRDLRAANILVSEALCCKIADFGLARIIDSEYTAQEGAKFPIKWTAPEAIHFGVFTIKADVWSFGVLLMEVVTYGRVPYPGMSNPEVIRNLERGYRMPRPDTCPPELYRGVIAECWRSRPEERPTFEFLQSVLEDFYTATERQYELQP
Chain of Fyn (P06241 whole entry): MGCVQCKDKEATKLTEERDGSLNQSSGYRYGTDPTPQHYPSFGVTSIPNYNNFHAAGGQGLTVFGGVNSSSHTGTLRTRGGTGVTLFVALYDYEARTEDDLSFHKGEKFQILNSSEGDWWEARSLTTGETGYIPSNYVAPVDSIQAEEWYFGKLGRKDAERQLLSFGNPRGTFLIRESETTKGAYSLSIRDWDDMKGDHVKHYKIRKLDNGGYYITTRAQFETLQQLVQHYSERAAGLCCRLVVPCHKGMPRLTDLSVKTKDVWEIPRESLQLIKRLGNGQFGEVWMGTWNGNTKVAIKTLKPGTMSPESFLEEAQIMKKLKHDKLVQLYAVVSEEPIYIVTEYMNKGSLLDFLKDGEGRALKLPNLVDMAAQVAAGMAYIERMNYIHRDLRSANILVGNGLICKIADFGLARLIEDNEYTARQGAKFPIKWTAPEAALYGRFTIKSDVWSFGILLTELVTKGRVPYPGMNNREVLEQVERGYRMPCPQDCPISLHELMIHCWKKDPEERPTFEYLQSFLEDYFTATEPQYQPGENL
Chain of Lyn (P07948 whole entry): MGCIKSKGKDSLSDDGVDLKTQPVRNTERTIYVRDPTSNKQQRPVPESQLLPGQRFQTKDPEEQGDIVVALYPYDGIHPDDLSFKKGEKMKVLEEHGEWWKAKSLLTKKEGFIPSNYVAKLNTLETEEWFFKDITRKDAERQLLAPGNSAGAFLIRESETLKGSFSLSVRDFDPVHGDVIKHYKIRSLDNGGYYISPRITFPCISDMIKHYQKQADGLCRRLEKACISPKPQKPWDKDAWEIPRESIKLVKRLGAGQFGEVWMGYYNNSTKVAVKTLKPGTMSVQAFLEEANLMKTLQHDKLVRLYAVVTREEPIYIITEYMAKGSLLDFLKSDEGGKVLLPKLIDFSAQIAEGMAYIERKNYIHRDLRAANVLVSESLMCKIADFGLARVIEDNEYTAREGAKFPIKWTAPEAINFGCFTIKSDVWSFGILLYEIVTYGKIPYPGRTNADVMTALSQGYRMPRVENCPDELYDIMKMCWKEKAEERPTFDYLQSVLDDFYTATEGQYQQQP
Chain of Yes (P07947 whole entry): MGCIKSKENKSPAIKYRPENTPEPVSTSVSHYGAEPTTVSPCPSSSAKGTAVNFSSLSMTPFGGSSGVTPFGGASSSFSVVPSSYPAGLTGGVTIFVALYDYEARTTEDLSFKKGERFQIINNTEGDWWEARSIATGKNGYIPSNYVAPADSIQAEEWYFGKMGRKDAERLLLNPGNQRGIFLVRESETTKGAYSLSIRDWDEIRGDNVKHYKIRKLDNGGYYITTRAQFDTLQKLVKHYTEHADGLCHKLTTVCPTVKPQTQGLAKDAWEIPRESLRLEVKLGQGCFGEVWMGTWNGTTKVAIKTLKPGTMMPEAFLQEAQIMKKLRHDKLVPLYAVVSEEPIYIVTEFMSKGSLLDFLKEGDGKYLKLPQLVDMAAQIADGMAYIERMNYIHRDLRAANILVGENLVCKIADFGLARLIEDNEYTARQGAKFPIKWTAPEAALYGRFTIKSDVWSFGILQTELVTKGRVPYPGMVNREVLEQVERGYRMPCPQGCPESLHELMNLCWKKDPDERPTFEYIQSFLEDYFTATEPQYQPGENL
Chain of Frk (P42685 whole entry): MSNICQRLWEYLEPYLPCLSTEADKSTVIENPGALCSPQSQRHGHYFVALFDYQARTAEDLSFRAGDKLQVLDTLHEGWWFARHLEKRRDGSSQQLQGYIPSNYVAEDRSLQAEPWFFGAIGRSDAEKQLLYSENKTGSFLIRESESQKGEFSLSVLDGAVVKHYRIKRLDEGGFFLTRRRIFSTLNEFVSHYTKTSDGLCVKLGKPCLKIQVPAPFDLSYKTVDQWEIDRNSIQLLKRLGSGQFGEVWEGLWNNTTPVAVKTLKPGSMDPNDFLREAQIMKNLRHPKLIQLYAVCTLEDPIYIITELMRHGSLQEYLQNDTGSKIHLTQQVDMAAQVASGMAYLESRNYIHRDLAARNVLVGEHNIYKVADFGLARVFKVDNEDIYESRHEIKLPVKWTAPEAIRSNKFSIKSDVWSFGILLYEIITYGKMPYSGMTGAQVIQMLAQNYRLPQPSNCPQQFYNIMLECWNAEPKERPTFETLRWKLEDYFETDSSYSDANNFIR

Compound: COc1ccc2cc([C@H](C)C(=O)O)ccc2c1 [Naproxen, reference compound]
Reaction threshold value, % of control ([1]; 50 mg/kg intragastric, days 14, 21, 28, day 14): 82 % of control
Reaction threshold value, % of control ([1]; 50 mg/kg intragastric, days 14, 21, 28, day 21): 102 % of control
Reaction threshold value, % of control ([1]; 50 mg/kg intragastric, days 14, 21, 28, day 28): 96 % of control

Compound: CN1CCN(CCOc2cc(OC3CCOCC3)c3c(Nc4c(Cl)ccc5c4OCO5)ncnc3c2)CC1 [saracatinib]
toxicity [2]: high toxicity

Compound: O=P(O)(O)C(O)(Cn1ccnc1)P(=O)(O)O [Zoledronic acid, reference compound]
Reaction threshold value, % of control ([1]; 0.1 mg/kg subcutaneously, days 0, 3, 6, 9, 12, 15, 18, 21, 24, 27, day 14): 98 % of control
Reaction threshold value, % of control ([1]; 0.1 mg/kg subcutaneously, days 0, 3, 6, 9, 12, 15, 18, 21, 24, 27, day 21): 108 % of control
Reaction threshold value, % of control ([1]; 0.1 mg/kg subcutaneously, days 0, 3, 6, 9, 12, 15, 18, 21, 24, 27, day 28): 118 % of control

inhibition at 0.5 µM (Hck): > 50%
remaining activity at 0.5 µM (Hck; read-out: residual activity): 25%
inhibition at 0.5 µM (Yes): > 50%
remaining activity at 0.5 µM (Yes; read-out: residual activity): 12%
inhibition at 0.5 µM (Lyn): > 50%
remaining activity at 0.5 µM (Lyn; read-out: residual activity): 13%
IC50 [4]: 14 nM
inhibition at 0.5 µM ([4]; 0.5 μmol/l): > 50%
remaining activity at 0.5 µM ([4]; 0.5 μmol/l, read-out: residual activity): 6%
inhibition at 0.5 µM (Lck): > 50%
remaining activity at 0.5 µM (Lck; read-out: residual activity): 12%
IC50 (Syk kinase): 40 nM
inhibition at 0.5 µM (Syk kinase; 0.5 μmol/l): > 50%
inhibition at 0.5 µM (Blk): > 50%
remaining activity at 0.5 µM (Blk; read-out: residual activity): 20%
inhibition at 0.5 µM (Frk): > 50%
inhibition at 0.5 µM (Fgr): > 50%
remaining activity at 0.5 µM (Fgr; read-out: residual activity): 23%
inhibition at 0.5 µM (Fyn): > 50%
remaining activity at 0.5 µM (Fyn; read-out: residual activity): 25%
residual Src-kinase family activity (Src-kinase family): ≤ 25 % of control values
Compound: COc1cc(Nc2ncnc(Nc3ccc4c(n3)NC(=O)C(C)(C)O4)n2)cc(OC)c1OC.Cc1ccc(S(=O)(=O)O)cc1 [salt of 4-methylbenzenesulfonic acid and 2,2-dimethyl-6-((4-((3,4,5-trimethoxyphenyl)amino)-1,3,5-triazine-2-yl)amino)-2H-pyrido[3,2-b][1,4]oxazine-3(4H)-one base]
increase of aggrecan production ([3]; induced hypertrophic changes in chondrocytes): more than four-time increase

Compound: COc1cc(Nc2ncnc(Nc3ccc4c(n3)NC(=O)C(C)(C)O4)n2)cc(OC)c1OC.Cc1ccc(S(=O)(=O)O)cc1.O [salt monohydrate of 4-methylbenzenesulfonic acid and 2,2-dimethyl-6-((4-((3,4,5-trimethoxyphenyl)amino)-1,3,5-triazine-2-yl)amino)-2H-pyrido[3,2-1,4]oxazine-3(4H)-one Base (Polymorphic Modification B)]
effect on osteoclast-mediated resorption of the mineralized matrix (mature human osteoclasts; concentrations from 1.0 μM): statistically significant dose-dependent inhibitory effect

half-maximal inhibitory concentration ([4]; human c-Src kinase): within a nanomolar range
pKa [5]: 4
solubility ([6]; 1,4-Dioxane, 106 mg base in 7 ml, 100 °C (code S-1-4-D)): > 10000 µg/mL
solubility ([6]; Acetone, 97 mg base in 10 ml, 56 °C (code S-1-5-A1)): < 10000 µg/mL
solubility ([6]; Ethanol, 98 mg base in 10 ml, 78 °C (code S-1-2-C2)): < 10000 µg/mL
solubility ([6]; THF, 103 mg base in 10 ml, 66 °C (code S-1-3-T)): < 10000 µg/mL
solubility ([6]; n-Butanol, 101 mg base in 10 ml, 117 °C (code S-1-1-B)): < 10000 µg/mL
AUC0-t [7]: 55 ng·h/mL
AUC(0-inf) [7]: 73 ng·h/mL
Cmax [7]: 4.12 ng/mL
Tmax [7]: 4 h
Vz(/F) [7]: 6,982.6 l/kg
average daily concentration of the substance [7]: 4.8 nmol/L
half-life [7]: 709 min
maximum concentration of the substance in plasma [7]: 9.1 nmol/L
maximum plasma concentration relative to minimum effective concentration [7]: 100 times lower
Compound: COc1cc(Nc2ncnc(Nc3ccc4c(n3)NC(=O)C(C)(C)O4)n2)cc(OC)c1OC [Compound 1, 2,2-dimethyl-6-((4-((3,4,5-trimethoxyphenyl)amino)-1,3,5-triazine-2-yl)amino)-2H-pyrido[3,2-b][1,4]oxazine-3(4H)-one]
effect on osteoclast-mediated resorption of the mineralized matrix (mature human osteoclasts; 48 hours cultivation): dose-dependent inhibitory effect
effective concentration (mature human osteoclasts; studies of Compound 1 biological activity): about 1 μmol/l

AUC0-t [8]: 2,339 ng · h/ml
AUC0-∞ [8]: 2,418 ng · h/ml
T1/2 [8]: 5.0 h
Tmax [8]: 1.5 h
Compound: COc1cc(Nc2ncnc(Nc3ccc4c(n3)NC(=O)C(C)(C)O4)n2)cc(OC)c1OC.Cc1ccc(S(=O)(=O)O)cc1.O [salt monohydrate of 4-methylbenzenesulfonic acid and 2,2-dimethyl-6-((4-((3,4,5-trimethoxyphenyl)amino)-1,3,5-triazine-2-yl)amino)-2H-pyrido[3,2-b][1,4]oxazine-3(4H)-one Base (Polymorphic Modification A)]
effect on IL-1β-induced hypertrophic changes in chondrocytes (increase in aggrecan expression) ([3]; treatment for 3 days): statistically significant positive effect

Source: patent US10745414B2, “Crystal salt form of 2,2-dimethyl-6-((4-((3,4,5-trimethoxyphenyl)amino)-1,3,5-triazine-2-yl)amino)-2H-pyrido[3,2-b][1,4]oxazine-3(4H)-one for human use” (LIMITED “MOLECULAR TECHNOLOGIES”, priority 2016, dated 2020)
